Assays:
[1] = system: p210-BCR-ABL(T315I) leukemia; assay: TKI-resistant p210-BCR-ABL(T315I) mouse model; assay type: in vivo, mice
Excerpt: LDBM cells were transduced with TKI-resistant p210-BCR-ABL1(T315I) (gatekeeper mutant) and transplanted into recipient mice as in FIG. 10. […] (B) Flow cytometric analysis of leukemic progenitor (EGFP^+) B-cells in peripheral blood (PB) at the indicated week.
To further test this idea, we evaluated the ability of IODVA1 to increase the survival of mice harboring p210-BCR-ABL(T315I).
C57Bl/6 mice were commercially obtained (The Jackson Laboratory and Harlan Laboratories) and used as donors and/or recipients of transduction/transplantation models under a protocol approved by The Cincinnati Children's Hospital Medical Center Institutional Animal Care and Use Committee.
After a single wash in PBS, cells were stained with anti-B220 APC-Cy7 antibody. Stained cells were washed once and analyzed by flow cytometry.

[2] = molecular target: T1, recombinant Vav3 (Homo sapiens, UniProt Q9UKW4); assay: Microscale thermophoresis (MST) binding; details: one molecule of IODVA1 binds, read-out: binding affinity (Kd)
T1 construct: His6; made in house; host or cells: E. coli BL21 (DE3) or T7 Express, co-expressed with groEL-groES
T1 sequence (Q9UKW4 whole entry, species assumed): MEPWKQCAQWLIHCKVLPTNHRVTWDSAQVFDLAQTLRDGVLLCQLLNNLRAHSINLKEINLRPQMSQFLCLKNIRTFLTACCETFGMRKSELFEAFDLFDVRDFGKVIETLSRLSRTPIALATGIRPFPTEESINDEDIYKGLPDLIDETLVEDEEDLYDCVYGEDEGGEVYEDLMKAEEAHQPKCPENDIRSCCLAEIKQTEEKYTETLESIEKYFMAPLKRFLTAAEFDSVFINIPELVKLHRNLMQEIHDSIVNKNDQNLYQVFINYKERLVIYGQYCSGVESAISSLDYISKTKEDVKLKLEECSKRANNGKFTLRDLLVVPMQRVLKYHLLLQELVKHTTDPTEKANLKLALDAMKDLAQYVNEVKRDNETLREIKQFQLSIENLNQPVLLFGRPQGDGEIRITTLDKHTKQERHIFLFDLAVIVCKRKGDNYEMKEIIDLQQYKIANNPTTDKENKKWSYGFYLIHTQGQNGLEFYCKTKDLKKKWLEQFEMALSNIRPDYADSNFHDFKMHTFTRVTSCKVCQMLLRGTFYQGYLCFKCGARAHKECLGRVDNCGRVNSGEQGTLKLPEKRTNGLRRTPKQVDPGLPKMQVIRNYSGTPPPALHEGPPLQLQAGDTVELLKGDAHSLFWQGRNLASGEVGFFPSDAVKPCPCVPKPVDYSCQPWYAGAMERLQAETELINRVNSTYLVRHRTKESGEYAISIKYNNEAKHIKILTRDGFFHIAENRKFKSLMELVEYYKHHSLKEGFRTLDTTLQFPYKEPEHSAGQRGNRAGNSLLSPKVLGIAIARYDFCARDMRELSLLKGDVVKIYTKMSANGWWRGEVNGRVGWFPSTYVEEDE
Method: FIG. 14: IODVA1 targets Vav3 in vitro and in vivo. (A) Ba/F3 cells expressing empty vector Mieg3 or p190-BCR-ABL1 were treated with vehicle control or IODVA1 (IO1, 3 μM) for 30 min and incubated with GST-Rac and glutathione beads. Beads were washed and the protein complexes were separated on SDS-PAGE and immunoblotted for pVav3. Input Vav3 was used as control. (B) Binding affinity (Kd) between IODVA1 and Vav3 (green), LARG (brown), and RacGDP (blue). […] Error bars=SD; N=3. (C) Quantification of the average number of colonies made by bone marrow wild-type (black) and Vav3^−/− (lilac) p190-BCR-ABL1 leukemic cells treated with vehicle control or IODVA1 (IO1, 1 and 3 μM) (* p≤0.05; ** p≤0.01; *** p≤0.001; ns, not significant). (D) Representative histogram data of the cell cycle analysis of wild-type (black and grey bars) and Vav3^−/− (dark and light lilac) bone marrow cells expressing p190-BCR-ABL and treated with vehicle control or IODVA1 (IO1, 3 μM) for 20 h. (E) Quantification by densitometry of the pVav3 band from FIG. 14A. […]
To test this hypothesis, we measured its binding affinity (Kd) to recombinant Vav3 and Rac1 using microscale thermophoresis (MST); the catalytic domain (DH/PH) of the RhoGEF LARG served as negative control. […] Second, like Vav3, LARG contains a DH/PH domain responsible for the exchange activity such that any non-specific binding to this domain should be detected. […]

[3] = system: pVav3 in MDA-MB-231 xenograft tumors; assay: Immunohistochemistry of pVav3 in xenograft tumors; parameters: species or system mice; details: mouse, in vivo
Method: FIG. 16: IODVA1 decreases levels of pVav3 in in vitro and in vivo models of triple negative breast cancer. (A) Immunoblot and quantification of Vav3 protein in lysates of MDA-MB-231 triple negative breast cancer cells stably expressing scrambled or Vav3-targeting shRNAs. Viability of the MDA-MB-231 cells stably expressing shVav3 in the presence of IODVA1 (0-1 μM). Cells were grown in the presence of IODVA1 and counted by trypan blue exclusion at the indicated time points. (B) MDA-MB-231 cells were incubated with IODVA1 (3 μM) for 15 min and the levels of phosphorylated Vav3 (pY173) were assessed by immunoblotting. (C) Immunohistochemical staining of phosphorylated Vav3 in tissue derived from MDA-MB-231 xenografts treated with vehicle control or IODVA1.
To test if IODVA1 inhibits Vav3 in vivo, we took advantage of the MDA-MB-231 xenograft tumors we generated (FIG. 8A) and stained them by immunohistochemistry for pVav3.
Embedded tissues were cut into 4 μm sections then immunohistochemically stained using the Mouse on Mouse kit (MoM kit, Vector Laboratories). Tissue sections were subjected to sodium citrate antigen retrieval, pretreated with 0.3% hydrogen peroxide, blocked according to kit directions, and incubated with an antibody to phosphorylated Vav3 (1:200 dilution, Abcam) and HRP-conjugated anti-rabbit secondary (Vector Laboratories). […]

OC1(c2ccccn2)N=C(Nc2nc3ccccc3[nH]2)N=C1c1ccccn1 (stereo not shown) [IODVA1, (Z)-2-((1H-benzo[d]imidazol-2-yl)imino)-4,5-di(pyridin-2-yl)-2,5-dihydro-1H-imidazol-5-ol]
treated mice surviving until day 65 ([1]; 37 days post last treatment): 80%
treated mice surviving till day 80 ([1]; 52 days post last treatment): 60%
decrease in leukemic progenitor levels (EGFP+/B220+) in peripheral blood ([1]; week 5): 84%
decrease in leukemic progenitor levels (EGFP+/B220+) in peripheral blood ([1]; week 10): 91%
decrease in leukemic progenitor levels (EGFP+/B220+) in peripheral blood ([1]; week two): 24%
Kd [2]: 512 nM
pVav3 staining of tumor sections versus vehicle control [3]: significant decrease
